Data on three compounds can be found in article PMC12195956 (Molecules, 2025).

A short description of data set [1]: Solubility screening of anthralin in oils, surfactants and co-surfactants. The data set is classed as physicochemical. Conditions: read-out: drug solubility. Here is the method:
Excess drug was dissolved in 1 mL of the aforementioned oils, surfactant, and co-surfactant, and vortexed continuously for 48 h. The samples were centrifuged at 5000–7000 rpm for 15 min after which they were left to rest for 72 h.

For data set [2] the following is noted: previously reported value ref 37; cited from earlier work.
A short description of data set [3]: pKa and percentage ionization (Henderson–Hasselbalch equation). The data set is classed as physicochemical. The source says:
One study reported an average pH of 5.2 in psoriatic skin, compared to 5.6 in healthy skin [36]. […] The optimal pH range for topical application is 6–7 to balance efficacy and skin irritation.

Data set [4] relates to L929 (Mouse Connective Cell Line). The data set can be described thus: MTT assay (antipsoriatic activity). It is filed as cell-based. Here is the method: The L929 mouse connective tissue cell line was received from the National Center for Cell Sciences (NCCS), Pune, India and grown in DMEM media containing 10% fetal bovine serum. The cells were kept at 37 °C in a 5% CO2 incubator and seeded at a density of 1 × 10⁴ cells/mL in culture media for 24 h. To conduct the experiment, 70 μL of cell suspension (1 × 10^4 cells/well) were added to 100 μL of culture media on a 96-well tissue culture plate. Sample was added to wells at varying doses (25, 50, and 100 μg/mL), while control wells contained 0.2% DMSO in PBS with cell culture. All experiments were performed in triplicate to ensure reliability and reproducibility of the results. Control wells were utilized to evaluate cell viability and calculate the percentage of cells that survived after incubation. The cultures were incubated at 37 °C with 5% CO2 for 24 h in a CO2 incubator (Thermo Scientific BB150, Thermo Fisher Scientific Inc., Waltham, MA, USA). After incubation, the media were removed and 20 μL of MTT reagent (5 mg/mL in PBS) was added. The plates were incubated for a further 4 h at 37 °C to allow live cells to convert the MTT into formazan crystals, which were then viewed under a microscope. After removing the medium, 200 μL of DMSO was added and incubated at 37 °C for 10 min while protected from light with aluminum foil. Each sample’s absorbance was measured at 570 nm using an ELISA microplate reader (Benesphera E21, Avantor Performance Materials India Private Limited, Gurgoan, India), with triplicates tested for accuracy.
A general note: Tetrazolium dyes change colour on reduction, which living cells bring about.

Another data set relates to Propionibacterium. Briefly: Antibacterial activity, zone of inhibition. The data set is classed as cell-based. Conditions: 24 h incubation. How it is done:
Nutrient Agar (NA-Himedia, HiMedia Laboratories Pvt. Ltd., Mumbai, India) was prepared by dissolving 28.0 g in 1000 mL distilled water, sterilized at 121 °C for 15 min, and poured into sterile Petri plates. Propionibacterium was used for microbial assays. A 24 h pure culture was prepared by suspending the microorganisms in saline solution, streaking onto culture slants, and incubating at 37 °C. Standard solutions, including Clindamycin (25 mg/mL), were prepared in sterile water and stored under refrigeration. Plates were prepared using the pour plate method by pouring melted agar into sterile plates and allowing its solidification before use.
A sterile, non-toxic cotton swab was dipped in the standardized inoculums (turbidity was adjusted to achieve confluent growth on the Petri plate), and the entire plate’s agar surface was streaked with the swab three times, turning the plate at a 60-degree angle between streaking. The streaked inoculums were then allowed to dry for 5–15 min with the lid on. Then, using sterile well punches, a bore was punched on the prepared plates (8 mm). With the assistance of a sterile micropipette, a 10 μL dosage of produced microemulsion and standard medication Clindamycin were injected into each bore in an aseptic environment. Plates were maintained at room temperature for 30 min before being incubated for 24 h at 37 °C. The diameter of the inhibitory zones was measured using a scale in mm.
The antibacterial potential of test compounds was assessed using the mean diameter of the zone of inhibition around the disc in millimeters. The zones of inhibition of the studied microorganisms by the substances were determined on a millimeter scale.

Values after ≈ are worked out from the molar mass of the structure shown. Where two headings read alike, the source gives them in different places.

`O=C1c2c(O)cccc2Cc2cccc(O)c21` [Anthralin]: the solubility (as a rule, the dissolved amount per volume that the medium holds) at 48 h is 14.1 mg/mL (≈ 62.2 mM) in data set [1] (PEG 400, 27 °C, organic solvent or mixture, thermodynamic from solid, in PEG 400, room temperature (27 ± 1 °C)); 4.23 mg/mL (≈ 18.7 mM) in data set [1] (Span 20, thermodynamic from solid, in Span 20); 15.6 mg/mL (≈ 68.8 mM) in data set [1] (Transcutol-P, organic solvent or mixture, thermodynamic from solid, in Transcutol-P); 11.6 mg/mL (≈ 51.2 mM) in data set [1] (Tween 20, thermodynamic from solid, in Tween 20); 56 mg/mL (≈ 248 mM) in data set [1] (Tween 80, 27 °C, thermodynamic from solid, in Tween 80, room temperature (27 ± 1 °C)); 23.9 mg/mL (≈ 106 mM) in data set [1] (castor oil, oil or lipid, thermodynamic from solid, in castor oil). For the same compound, the solubility at 48 h in data set [1] (ethanol, organic solvent or mixture, thermodynamic from solid, in ethanol) came out at 9.23 mg/mL (≈ 40.8 mM); in data set [1] (oleic acid, 27 °C, oil or lipid, thermodynamic from solid, in oleic acid, room temperature (27 ± 1 °C)), 44.2 mg/mL (≈ 196 mM); in data set [1] (olive oil, oil or lipid, thermodynamic from solid, in olive oil), 28.2 mg/mL (≈ 125 mM). Also, the pKa (as a rule, the negative logarithm of the acid dissociation constant) in data set [2] is reported as 9.06. Further, the figures for the percentage ionization in data set [3] (pH 5.2 (psoriatic skin)) and in data set [3] (pH 5.6 (healthy skin)) were 0.01% and 0.03%, respectively. The same compound had an Inhibition % in data set [4] (L929, 100 µg/mL, 24 h) of 60.345%. Besides, 25 µg/mL produced 47.9% inhibition in data set [4] (Mus musculus, L929, 24 h, L929, 25 µg/mL, 24 h). The inhibition (usually the percentage by which the read-out fell short of the control) at 50 µg/mL in data set [4] (Mus musculus, L929, 24 h, L929, 50 µg/mL, 24 h) stood at 53%. In data set [4] (Mus musculus, L929, 24 h, L929, 100 µg/mL, 24 h), this compound yielded an inhibition at 100 µg/mL of 60.3%. The viability (as a rule, the share of living cells, or the viability signal relative to a control) at 25 µg/mL in data set [4] (Mus musculus, L929, 25 µg/mL, 24 h) was found to be 52.1%. Also, the viability at 50 µg/mL in data set [4] (Mus musculus, L929, 50 µg/mL, 24 h) stood at 47%. For the same compound, the viability at 100 µg/mL in data set [4] (Mus musculus, L929, 100 µg/mL, 24 h) was determined as 39.7%. Further, the IC50 (in general, the concentration needed to halve the response being measured) in data set [4] (Mus musculus, L929, from linear regression of % inhibition vs. concentration) stood at 36.2 µg/mL (≈ 0.16 mM).

With `CCC[C@@H]1C[C@@H](C(=O)N[C@@H]([C@H]2O[C@H](SC)[C@H](O)[C@@H](O)[C@H]2O)[C@H](C)Cl)N(C)C1` [Clindamycin], the zone of inhibition (as a rule, the size of the clear area around the sample on an inoculated plate) at 25 µg/mL with Propionibacterium (25 μg/mL) came out at 11.3 ± 1.15 mm. The compound further gave a zone of inhibition at 50 µg/mL in the data set on Propionibacterium (50 μg/mL) of 13.7 ± 1.15 mm. In the data set on Propionibacterium (100 μg/mL), this compound yielded a zone of inhibition at 100 µg/mL of 20.7 ± 1.15 mm.

On to `O=c1[nH]cc(F)c(=O)[nH]1` [Batch 5-FU, 5-flurouracil], for which the “Cell Viability %” value in data set [4] (L929, 25 µg/mL, 24 h) turned out to be 33.90%; in data set [4] (L929, 50 µg/mL, 24 h), 29.87%; in data set [4] (L929, 100 µg/mL, 24 h), 21.00%. For the same compound, the Inhibition % is listed as 66.10% in data set [4] (L929, 25 µg/mL, 24 h); 70.13% in data set [4] (L929, 50 µg/mL, 24 h); 79.00% in data set [4] (L929, 100 µg/mL, 24 h).
